Test results as given in US20040171566A1, “Antisense modulation of p38 mitogen activated protein kinase expression” (priority 1999, published 2004).
In the oligonucleotide strings, read from the 5' end, every base follows the letter of its sugar. An asterisk marks phosphorothioate; unmarked linkages are phosphodiester. Other units and linkages are bracketed, terminal groups are in braces. A string of capitals states the bases alone. e = 2'-O-(2-methoxyethyl) (MOE); [5mC] = 5-methylcytosine; d = 2'-deoxy (DNA)

What was measured:
[1] = tested on: human p38β mRNA; experiment: Inhibition of human p38β mRNA expression in HUVEC cells, Northern blot; assay type: cell-based
[2] = tested on: human p38α mRNA; experiment: Human p38α mRNA expression in T-24 cells; conditions: initial screen of human p38β oligonucleotides
[3] = tested on: human p38β mRNA; experiment: Human p38β mRNA expression in T-24 cells
[4] = tested on: human p38α mRNA; experiment: Effect of human p38β oligonucleotides on human p38α mRNA in HUVEC cells; assay type: cell-based
Method: HUVEC cells were allowed to reach 75% confluency prior to use. The cells were washed twice with warm (37° C.) OPTI-MEM™ (Life Technologies). The cells were incubated in the presence of the appropriate culture medium, without the growth factors added, and the oligonucleotide formulated in LIPOFECTIN7 (Life Technologies), a 1:1 (w/w) liposome formulation of the cationic lipid N-[1-(2,3-dioleyloxy)propyl]-n,n,n-trimethylammonium chloride (DOTMA), and dioleoyl phosphotidylethanolamine (DOPE) in membrane filtered water. HUVEC cells were treated with 100 nM oligonucleotide in 10 μg/ml LIPOFECTIN7. Treatment was for four hours.
Total mRNA was isolated using the RNEASY7 Mini Kit (Qiagen, Valencia, Calif.; similar kits from other manufacturers may also be used), separated on a 1% agarose gel, transferred to HYBOND™-N+ membrane (Amersham Pharmacia Biotech, Piscataway, N.J.), a positively charged nylon membrane, and probed. p38 MAPK probes were made using the Prime-A-Gene7 kit (Promega Corporation, Madison, Wis.), a random primer labeling kit, using mouse p38α or p38β cDNA as a template. […] The G3PDH probe was labeled with REDIVUE™ ^32P-dCTP (Amersham Pharmacia Biotech, Piscataway, N.J.) and Strip-EZ labelling kit (Ambion, Austin, Tex.). mRNA was quantitated by a PhosphoImager (Molecular Dynamics, Sunnyvale, Calif.). […]

[5] = tested on: rat p38α mRNA; experiment: Inhibition of rat p38α mRNA expression in A-10 cells, Northern blot; assay type: cell-based; conditions: Rat A-10 cells, 200 nM oligonucleotide, 24 hours
Method: Rat p38α antisense oligonucleotides were screened in Rat A-10 cells. A-10 cells (American Type Culture Collection, Manassas, Va.) were grown in high-glucose DMEM (Life Technologies, Gaithersburg, Md.) medium containing 10% fetal calf serum (FCS). Cells were treated with oligonucleotide as described in Example 2. Oligonucleotide concentration was 200 nM. mRNA was isolated 24 hours after time zero and quantitated by Northern blot as described in Example 2.

[6] = tested on: rat p38α mRNA; experiment: Inhibition of rat p38α mRNA expression in rat cardiac myocytes, Northern blot; assay type: cell-based; conditions: 1 μM oligonucleotide, 24 hrs
Method: Cells were grown as described in Zechner et al. and transfected with oligonucleotide as described in Example 2. Oligonucleotide concentration was 1 μM. mRNA was isolated 24 hrs after time zero and quantitated using Northern blotting as described in Example 2. An antisense oligonucleotide targeted to JNK-2 was used as a non-specific target control.

[7] = 100 nM oligonucleotide in 10 μg/ml LIPOFECTIN, four hours, Northern blot

Substance	% mRNA EXPRESSION [1, 7]	% mRNA Inhibition [1, 7]	% mRNA EXPRESSION ([1]; dose 10 nM)	% mRNA Inhibition ([1]; dose 10 nM)	% mRNA EXPRESSION ([1]; dose 25 nM)	% mRNA Inhibition ([1]; dose 25 nM)	% mRNA EXPRESSION ([1]; dose 50 nM)	% mRNA Inhibition ([1]; dose 50 nM)	% mRNA EXPRESSION ([1]; dose 100 nM)	% mRNA Inhibition ([1]; dose 100 nM)	% p38α mRNA EXPRESSION [2]	% p38β mRNA Expression ([3]; dose 50 nM, relative to control oligonucleotide = 100%)	% p38β mRNA Expression ([3]; dose 100 nM, relative to control oligonucleotide = 100%)	% p38β mRNA Expression ([3]; dose 200 nM, relative to control oligonucleotide = 100%)	% p38β mRNA Expression ([3]; initial screen of human p38β oligonucleotides)	IC50 for p38α compared to p38β [4]	effect on p38α mRNA expression [4]	% p38α mRNA EXPRESSION [5]	% p38α mRNA EXPRESSION [6]	% p38α mRNA INHIBITION [6]
TGCGGCACCTCCCACACGGT (chimeric, phosphorothioate, further chemistry not given here) [ISIS 17893]	4%	96%	37%	63%	18%	82%	16%	84%	19%	81%	61%	28%	27%	16%	31%	approximately 4 fold	showed an effect on p38α mRNA expression	–	–	–
GoGoCoCoAsGsAsGsAsCsTsGsAsAsTsGoToAoGoT (antisense eGeGe[5mC]e[5mC]eA*dG*dA*dG*dA*d[5mC]*dT*dG*dA*dA*dT*eGeTeAeGeT) [ISIS 21846]	–	–	–	–	–	–	–	–	–	–	–	–	–	–	–	–	–	8%	41%	59%
